Assay results as given in patent US20040058868A1, “Methods for identification of compounds modulating insulin resistance” (priority 2002, published 2004).

Tests used:
[1] = test system: IRS-1 acetylation in MCF-7 cells; assay: IRS-1 acetylation: immunoprecipitation with anti-IRS-1, western blot with anti-acetyl lysine antibodies; assay type: cell-based, human; conditions: MCF-7 cells treated with TSA
Protocol: FIG. 2 illustrates immunoprecipitation of IRS-1 and detection of anti-acetyl-lysine. MCF-7 cells were treated as follows: lane 1: IGF-1 for 10 min; lane 2: IGF-1 for 30 min; lane 3: IGF-1 for 1 h; lane 4: IGF-1 for 6 h; lane 5: IGF-1 for 24 h; lane 6: PMA for 6 h; lane 7: PMA for 6 h and IGF-1 for 10 min; lane 8: PMA for 24 h; lane 9: PMA and TSA for 6 h; lane 10: TSA for 6 h; lane 11: control (vehicle).
(§1) To further validate the IRS-1/HDAC2 interaction, several mammalian cell lines were used. MCF-7 is a human breast adenocarcinoma cell line, HepG2 is a hepatocellular carcinoma cell line and L6 is a rat skeletal muscle cell line. The MCF-7 cell line was chosen since these cells have a high endogenous production of IRS-1. Cells were grown to confluency, treated with IGF-1 or PMA ([…]) for different lengths of time and then harvested in hypotonic cell lysis buffer (comprising 20 mM Hepes, pH 7.6, 20% glycerol, 10 mM NaCl, 1.5 mM MgCl2, 0.2 mM EDTA, 0.1% NP40, 25 mM NaF, 25 mM β-glycerophosphate, 1 mM DTT, 1 mM Na orthovanadate with protease inhibitors). All precleared fractions were matched for protein content and then immunoprecipitated with anti-IRS-1 antibody. […] A similar. experiment was performed the other way around, i.e. HDAC2 was immunoprecipitated from the cell extracts and the subsequent membrane was probed with anti-IRS-1 antibodies. […]

[2] = test system: IRS-1 tyrosine phosphorylation in MCF-7 cells; assay: IRS-1 tyrosine phosphorylation: immunoprecipitation with anti-IRS-1, western blot with anti-phospho-tyrosine antibodies; assay type: cell-based, human; conditions: insulin 10 min, FIG. 3
Protocol: FIG. 3 illustrates immunoprecipitation of IRS-1 and detection of antiphosphotyrosine. MCF-7 cells were treated as follows: lane 1: insulin 10 min; lane 2: PMA & TSA for 4 h and insulin 10 min; lane 3: PMA for 4 h and insulin 10 min; lane 4: PMA & TSA for 4 h; lane 5: PMA for 4 h; lane 6: control (vehicle);
as §1

[3] = test system: IRS-1/HDAC2 interaction; assay: Coimmunoprecipitation of IRS-1 and HDAC2 in L6 cells; assay type: cell-based, rat; conditions: stimulation with insulin
Protocol: To further validate the IRS-1/HDAC2 interaction, several mammalian cell lines were used. MCF-7 is a human breast adenocarcinoma cell line, HepG2 is a hepatocellular carcinoma cell line and L6 is a rat skeletal muscle cell line. The MCF-7 cell line was chosen since these cells have a high endogenous production of IRS-1. Cells were grown to confluency, […] cell lysis buffer (comprising 20 mM Hepes, pH 7.6, 20% glycerol, 10 mM NaCl, 1.5 mM MgCl2, 0.2 mM EDTA, 0.1% NP40, 25 mM NaF, 25 mM β-glycerophosphate, 1 mM DTT, 1 mM Na orthovanadate with protease inhibitors). All precleared fractions were matched for protein content and then immunoprecipitated with anti-IRS-1 antibody. […] A similar. experiment was performed the other way around, i.e. HDAC2 was immunoprecipitated from the cell extracts and the subsequent membrane was probed with anti-IRS-1 antibodies.

[4] = test system: IRS-1/HDAC2 interaction; assay: Coimmunoprecipitation of IRS-1 and HDAC2 in HepG2 cells; assay type: cell-based; conditions: stimulation with insulin
Protocol: To further validate the IRS-1/HDAC2 interaction, several mammalian cell lines were used. MCF-7 is a human breast adenocarcinoma cell line, HepG2 is a hepatocellular carcinoma cell line and L6 is a rat skeletal muscle cell line. The MCF-7 cell line was chosen since these cells have a high endogenous production of IRS-1. […] All precleared fractions were matched for protein content and then immunoprecipitated with anti-IRS-1 antibody. […] A similar. experiment was performed the other way around, i.e. HDAC2 was immunoprecipitated from the cell extracts and the subsequent membrane was probed with anti-IRS-1 antibodies.

[5] = clinical trials in humans, reference [26]; cited from earlier work
[6] = test system: IRS-1/HDAC2 interaction; assay: Coimmunoprecipitation of IRS-1 and HDAC2 in MCF-7 cells; assay type: cell-based, human; conditions: MCF-7 cells treated with PMA; IP with anti-IRS-1 or anti-HDAC2
Protocol: To further validate the IRS-1/HDAC2 interaction, several mammalian cell lines were used. MCF-7 is a human breast adenocarcinoma cell line, HepG2 is a hepatocellular carcinoma cell line and L6 is a rat skeletal muscle cell line. The MCF-7 cell line was chosen since these cells have a high endogenous production of IRS-1. Cells were grown to confluency, treated with IGF-1 or PMA ([…]) for different lengths of time and then harvested in hypotonic cell lysis buffer (comprising 20 mM Hepes, pH 7.6, 20% glycerol, 10 mM NaCl, 1.5 mM MgCl2, 0.2 mM EDTA, 0.1% NP40, 25 mM NaF, 25 mM β-glycerophosphate, 1 mM DTT, 1 mM Na orthovanadate with protease inhibitors). All precleared fractions were matched for protein content and then immunoprecipitated with anti-IRS-1 antibody. […] A similar. experiment was performed the other way around, i.e. HDAC2 was immunoprecipitated from the cell extracts and the subsequent membrane was probed with anti-IRS-1 antibodies.

## CC(/C=C/C(=O)NO)=C\[C@@H](C)C(=O)c1ccc(N(C)C)cc1 [TSA, Trichostatin A]
[1]; FIG. 2
  acetylation of IRS-1: significantly pronounced
[1]; FIG. 2, listed as Trichostatin A
  acetylation of IRS-1: enhanced
[2]; PMA and TSA simultaneously 4 h
  reversal of PMA-induced insulin resistance (tyrosine phosphorylation of IRS-1): insulin resistance can to a large extent be remedied

## insulin: insulin used to stimulate cells
[3]
  interaction between IRS-1 and HDAC2 (coimmunoprecipitation): not influenced
[4]
  interaction between IRS-1 and HDAC2 (coimmunoprecipitation): not influenced

## O=C(CCCCCCC(=O)Nc1ccccc1)NO [SAHA, suberoylanilide hydroxamic acid]
[5]
  tolerability / toxicity: well-tolerated, are not toxic

## CCCCCCCCCCCCCC(=O)O[C@@H]1[C@@H](C)[C@@]2(O)[C@@H](C=C(CO)C[C@]3(O)C(=O)C(C)=C[C@@H]23)[C@@H]2C(C)(C)[C@]12OC(C)=O [PMA, phorbol myristic acid]
[2]; PMA 4 h
  insulin-stimulated tyrosine phosphorylation of IRS-1 (insulin resistance): makes the cells insulin resistant
[6]
  interaction between IRS-1 and HDAC2 (coimmunoprecipitation): the interaction is PMA-driven
